Assay results as given in PMC6137088, “The Role of Outer Membrane Proteins and Lipopolysaccharides for the Sensitivity of Escherichia coli to Antimicrobial Peptides” (Frontiers in Microbiology, 2018).
Structures can show the parent of a compound that is named as a salt. Where a SMILES comes first, the peptide text is derived from it. Bridges are numbered along the chain shown (N, C = ends). Where no end group is shown, it is not given here. [ ]: non-standard residue; d: D form. The star is where a group is joined. X1 = CC[C@H](C)CCCCC(=O)*; Dab = NCC[C@H](N)C(=O)O

Assays:
[1] = test system: E. coli BW25113 gmhA::kan; format: cell-based, Escherichia coli; conditions: for MIC: Table 3, BW25113 gmhA::kan, Mueller-Hinton-II, 16–20 h, duplicates (*) or triplicates
Excerpt: (§1) The E. coli strains 470, F632, F653 and F2513 were kindly provided by Prof. H. Brade and Prof. S. Muller-Loennies, Research Center Borstel, Leipniz-Center for Medicine and Biosciences, Germany. E. coli BW25113 (CGSC#:7636), a derivative of F^−, λ^− E. coli K12 strain BD792 is the wild-type strain which was used in the generation of the KEIO collection and ordered from the Coli Genetic Stock Centre (CGSC, Yale University). E. coli JW3596, E. coli JW3024, E. coli JW3595, E. coli JW3606, E. coli JW0212, E. coli JW1667, E. coli JW0554, E. coli JW3605 and E. coli JW3600 are isogenic mutants of waaC, waaE, waaF, waaG, gmhA (lpcA), lpp, ompT, waaP, or waaY derived from the parental strain E. coli BW25113 and were ordered from the KEIO collection (Baba et al., [2006]). E. coli ATCC25922 is a clinical isolate, serotype O6, often used as control strain in antimicrobial susceptibility testing was ordered from the ATCC strain collection. All strains were grown in Mueller-Hinton-II medium and incubation took place aerobically at 37°C for 18–20 h.
(§2) The minimum inhibitory concentrations (MICs) of the AMPs were measured in 96-well microtiter plates according the Clinical and Laboratory Standards Institute [CLSI, formerly National Committee for Clinical Laboratory Standards (NCCLS)] (Wikler et al., [2009]). Liquid Mueller-Hinton-II medium containing increasing concentrations of AMPs is inoculated with a defined number of cells (~10^5 CFUs/ml) in 96-well microtiter plates (polypropylene). Each microtiter plate includes a positive growth control and a negative control (sterile control). After incubation, the minimal inhibitory concentration (MIC) is determined by the lowest concentration showing no visible growth. All plates were incubated for 16–20 h.

[2] = test system: E. coli BW25113 lpp::kan; format: cell-based, Escherichia coli; conditions: for MIC: Table 3, BW25113 lpp::kan, Mueller-Hinton-II, 16–20 h, duplicates (*) or triplicates
Excerpt: as §1, §2

[3] = test system: E. coli BW25113 ompT::kan; format: cell-based, Escherichia coli; conditions: for MIC: Table 3, BW25113 ompT::kan, Mueller-Hinton-II, 16–20 h, duplicates (*) or triplicates
Excerpt: as §1, §2

[4] = test system: E. coli BW25113 waaC::kan; format: cell-based, Escherichia coli; conditions: for MIC: Table 3, BW25113 waaC::kan, Mueller-Hinton-II, 16–20 h, duplicates (*) or triplicates
Excerpt: as §1, §2

[5] = test system: E. coli BW25113 waaE::kan; format: cell-based, Escherichia coli; conditions: for MIC: Table 3, BW25113 waaE::kan, Mueller-Hinton-II, 16–20 h, duplicates (*) or triplicates
Excerpt: as §1, §2

[6] = test system: E. coli BW25113 waaF::kan; format: cell-based, Escherichia coli; conditions: for MIC: Table 3, BW25113 waaF::kan, Mueller-Hinton-II, 16–20 h, duplicates (*) or triplicates
Excerpt: as §1, §2

[7] = test system: E. coli BW25113 waaG::kan; format: cell-based, Escherichia coli; conditions: for MIC: Table 3, BW25113 waaG::kan, Mueller-Hinton-II, 16–20 h, duplicates (*) or triplicates
Excerpt: as §1, §2

[8] = test system: E. coli BW25113 waaP::kan; format: cell-based, Escherichia coli; conditions: for MIC: Table 3, BW25113 waaP::kan, Mueller-Hinton-II, 16–20 h, duplicates (*) or triplicates
Excerpt: as §1, §2

[9] = test system: E. coli BW25113 waaY::kan; format: cell-based, Escherichia coli; conditions: Table 3, Mueller-Hinton-II, 16–20 h, duplicates (*) or triplicates
Excerpt: as §1, §2

[10] = test system: E. coli BW25113; format: cell-based, Escherichia coli; conditions: for MIC: Table 3, E. coli BW25113 wild type, Mueller-Hinton-II, ~10^5 CFUs/ml, 16–20 h, duplicates (*) or triplicates
Excerpt: as §1, §2

[11] = test system: E. coli F2513 (R4); format: cell-based, Escherichia coli; conditions: Table 4; E. coli F2513 (R4 prototype, rough LPS); triplicates
Excerpt: as §1, §2

[12] = test system: E. coli F470 (R1); format: cell-based, Escherichia coli; conditions: Table 4; E. coli F470 (R1 prototype, rough LPS); triplicates
Excerpt: as §1, §2

[13] = test system: E. coli F632 (R2); format: cell-based, Escherichia coli; conditions: Table 4; E. coli F632 (R2 prototype, rough LPS); triplicates
Excerpt: as §1, §2

[14] = test system: E. coli F653 (R3); format: cell-based, Escherichia coli; conditions: Table 4; E. coli F653 (R3 prototype, rough LPS); triplicates
Excerpt: as §1, §2

[15] = test system: E. coli ATCC25922 ΔwaaC; format: cell-based, Escherichia coli; conditions: Table 6, triplicates
Excerpt: as §1, §2

[16] = test system: E. coli ATCC25922 ΔwaaE; format: cell-based, Escherichia coli; conditions: Table 6, triplicates
Excerpt: as §1, §2

[17] = test system: E. coli ATCC25922 ΔwaaF; format: cell-based, Escherichia coli; conditions: Table 6, triplicates
Excerpt: as §1, §2

[18] = test system: E. coli ATCC25922 ΔwaaG; format: cell-based, Escherichia coli; conditions: Table 6, triplicates
Excerpt: as §1, §2

[19] = test system: E. coli ATCC25922; format: cell-based, Escherichia coli; conditions: triplicates; for Antimicrobial activity: MIC: Table 6, E. coli ATCC25922 wild-type
Excerpt: as §1, §2

[20] = test system: S. typhimurium LT2; test: MIC testing (CLSI broth microdilution); format: cell-based; conditions: Table 6, triplicates
Description: as §2

[21] = test system: Y. ruckeri 392/2003; test: MIC testing (CLSI broth microdilution); format: cell-based; conditions: Table 6, triplicates
Description: as §2

[22] = test system: E. coli ATCC25922 LPS mutants (ΔwaaC, ΔwaaE, ΔwaaF, ΔwaaG); format: cell-based, Escherichia coli; conditions: E. coli ATCC25922 background (text prints ATCC29522); summary of Table 6
Excerpt: as §1, with “[…],” for “E. coli JW3605 and E. coli JW3600 are isogenic mutants of waaC, waaE, waaF, waaG,”, “or waaY derived from the parental strain E. coli BW25113 and were ordered from the” left out
as §2

Row | Compound | MIC [4] [µg/mL] | MIC [5] [µg/mL] | MIC [6] [µg/mL] | MIC [7] [µg/mL] | MIC [8] [µg/mL] | MIC [9] [µg/mL] | MIC [10] [µg/mL] | Antimicrobial activity: MIC [15] [µg/mL] | Antimicrobial activity: MIC [16] [µg/mL] | Antimicrobial activity: MIC [17] [µg/mL] | Antimicrobial activity: MIC [18] [µg/mL] | Antimicrobial activity: MIC [19] [µg/mL] | Antimicrobial activity: MIC [20] [µg/mL] | Antimicrobial activity: MIC [21] [µg/mL] | MIC / antimicrobial activity in LPS mutants harboring a deletion in waaC, waaE, waaF, or waaG [22] [µg/mL] | further results
1 | CC[C@H](C)CCCCC(=O)N[C@@H](CCN)C(=O)N[C@H](C(=O)N[C@@H](CCN)C(=O)N[C@H]1CCNC(=O)[C@H]([C@@H](C)O)NC(=O)[C@H](CCN)NC(=O)[C@H](CCN)NC(=O)[C@H](CC(C)C)NC(=O)[C@@H](CC(C)C)NC(=O)[C@H](CCN)NC1=O)[C@@H](C)O [Colistin, colistin sulfate] (X1-[Dab]T[Dab][Dab][Dab][dL]L[Dab][Dab]T; lactam 4-C (inferred); N-terminus assumed) | 0.063 to 0.125 | 0.063 to 0.125 | 0.063 | 0.063 to 0.125 | 0.125 to 0.25 | 0.125 to 0.25 | 0.125 to 0.25 | – | – | – | – | – | – | – | – | MIC [1]: 0.063 µg/mL; increase in antimicrobial activity against BW25113 gmhA::kan compared to parental BW25113 ([1]; from MIC values of Table 3): up to 2 fold; MIC [2]: 0.063 to 0.125 µg/mL; increase in antimicrobial susceptibility of the lpp mutant compared to the wild-type (factor) ([2]; from MIC values of Table 3): 2; MIC [3]: 0.125 to 0.25 µg/mL; increase of antimicrobial activity in the ompT mutant compared to the parental strain BW25113 (factor) ([3]; from MIC values of Table 3): unchanged; increase in antimicrobial activity against BW25113 waaC::kan compared to parental BW25113 ([4]; from MIC values of Table 3): up to 2 fold; increase in antimicrobial activity against BW25113 waaE::kan compared to parental BW25113 ([5]; from MIC values of Table 3): up to 2 fold; increase in antimicrobial activity against BW25113 waaF::kan compared to parental BW25113 ([6]; from MIC values of Table 3): up to 2 fold; increase in antimicrobial activity against BW25113 waaG::kan compared to parental BW25113 ([7]; from MIC values of Table 3): up to 2 fold; increase in antimicrobial activity in a waaP mutant background compared to the wild-type strain (times) ([8]; from MIC values of Table 3): not changed
2 | GLRKKFRKTRKRIQKLGRKIGKTGRKVWKAWREYGQIPYPCRI [Cap11] | 8 | 8 | 8 | 8 | 8 to 16 | 8 to 16 | 8 | – | – | – | – | – | – | – | – | MIC [1]: 8 ^* μg/ml; MIC [2]: 8 ^* μg/ml; Antimicrobial activity (MIC) ([10]; Table 4, E. coli BW25113 (K12 core type), triplicates): 8 µg/mL; Antimicrobial activity (MIC) [11]: 4 to 8 µg/mL; Antimicrobial activity (MIC) [12]: 16 µg/mL; Antimicrobial activity (MIC) [13]: 8 µg/mL; Antimicrobial activity (MIC) [14]: 16 µg/mL
3 | GLRKRLRKFRNKIKEKKKKIGQKIQGLLPKLAPRTDY [L17K] | – | – | – | – | – | – | – | 8 | 8 | 8 | 8 | ≥64 | 16 | ≥64 | 4 to 8 | –
4 | GLRKRLRKFRNKIKEKLKKEGQKIQGLLPKLAPRTDY [I20E] | – | – | – | – | – | – | – | 4 | 4 | 4 | 8 | ≥64 | 8 | 32 | 4 to 8 | –
5 | GLRKRLRKFRNKIKEKLKKIGQKGQGLLPKLAPRTDY [I24G] | – | – | – | – | – | – | – | 8 | 8 | 8 | 8 | ≥64 | 8 to 16 | 32 | 4 to 8 | –
6 | GLRKRLRKFRNKIKEKLKKIGQKIQGPLPKLAPRTDY [L27P] | – | – | – | – | – | – | – | 8 | 4 | 4 | 4 | ≥64 | 8 | 32 | 4 to 8 | –
7 | SWLSKTAKKLENSAKKRISEGIAIAIQGGPR [Cecropin P1] | 8 | 8 | 4 | 16 | 16 to 32 | 32 | 16 to 32 | – | – | – | – | – | – | – | – | Antimicrobial activity (MIC) ([19]; Table 4, E. coli ATCC25922 (smooth LPS)): 32 µg/mL; MIC [3]: 16 ^* μg/ml; Antimicrobial activity (MIC) [11]: 16 to 32 µg/mL; Antimicrobial activity (MIC) [12]: 32 µg/mL; Antimicrobial activity (MIC) [13]: 32 µg/mL; Antimicrobial activity (MIC) [14]: 32 µg/mL
